Measurements: ChEMBL document CHEMBL1138893, “Modulators of the human CCR5 receptor. Part 3: SAR of substituted 1-[3-(4-methanesulfonylphenyl)-3-phenylpropyl]-piperidinyl phenylacetamides” (Bioorg Med Chem Lett, 2006)

Tests used:
[1] = in vivo; conditions: rat, iv
Description: Clearance in rat at 1-2 mg/kg, iv

[2] = in vivo; conditions: rat, iv; remark: listed apart in the source
[3] = in vivo; conditions: rat, iv; remark: listed apart in the source
Description: Half life in rat at 1-2 mg/kg, iv

[4] = biological target: C-C chemokine receptor type 5 (Homo sapiens, UniProt P51681); assay: biochemical
C-C chemokine receptor type 5, sequence (P51681 whole entry): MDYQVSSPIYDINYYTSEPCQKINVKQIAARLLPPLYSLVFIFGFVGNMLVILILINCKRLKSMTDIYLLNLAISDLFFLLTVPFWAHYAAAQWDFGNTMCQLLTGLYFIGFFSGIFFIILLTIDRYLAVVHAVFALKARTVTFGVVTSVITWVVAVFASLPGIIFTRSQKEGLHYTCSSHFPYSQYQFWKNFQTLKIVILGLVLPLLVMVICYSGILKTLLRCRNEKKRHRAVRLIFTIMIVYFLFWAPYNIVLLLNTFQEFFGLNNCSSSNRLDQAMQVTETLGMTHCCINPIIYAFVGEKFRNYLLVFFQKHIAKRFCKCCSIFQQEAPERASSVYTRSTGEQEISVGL
Description: Displacement of [125I]MIP-1-alpha to human recombinant CCR5 expressed in CHO cells

Row | SMILES | clearance [1] | Vd [2] | half-life [3] | IC50 [4]
1 | C=CCN(C(=O)Cc1ccc(S(C)(=O)=O)cc1)C1CCN(CCC(c2ccccc2)c2ccccc2)CC1 | 54 mL/min/kg | 2.7 L/kg | 0.9 h | 
2 | CCN(C(=O)Cc1ccc(S(C)(=O)=O)cc1)C1CCN(CCC(c2ccc(F)cc2)c2ccc(F)cc2)CC1 | 10 mL/min/kg | 1.7 L/kg | 2.4 h | 
3 | CCN(C(=O)Cc1ccc(S(C)(=O)=O)cc1)C1CCN(CC[C@H](c2ccc(S(C)(=O)=O)cc2)c2cccc(C#N)c2)CC1 |  |  |  | 0.056 µM
4 | CCN(C(=O)Cc1ccc(S(C)(=O)=O)cc1)C1CCN(CC[C@H](c2ccc(S(C)(=O)=O)cc2)c2cccc(C(C)(C)C)c2)CC1 |  |  |  | 0.5 µM
